Here are results for two molecules from patent US20050239805A1, “Mixtures of fused pyrimidinones and dinitrophenolic compounds useful for controlling powdery mildews” (priority 2002, published 2005).

Data set [1] relates to Erysiphe graminis f. sp. tritici. As to the kind of experiment: Test A: preventive spray on wheat seedlings, wheat powdery mildew disease control. The data set is classed as in vivo, Erysiphe graminis f. sp. tritici (wheat seedlings). The note with it: average of three replicates. As for the experimental part:
The formulation containing a compound of component (1) is dissolved in water to form a stock solution. For testing component (1) individually the stock solution is diluted to the final desired concentration to form a test solution. For example, the compositions of component (1) (e.g., Compound 1 of Index Table A), either alone or in combination, are sprayed at 0.08 or 0.4 ppm to the point of run-off on the test plants, equivalent to a rate of 0.2 or 1 g/ha, respectively.
The commercially available formulation of component (2) (e.g. the Karathane® 19.5% wettable powder formulation of dinocap) is suspended in water to form a stock suspension. For testing component (2) individually the stock suspension is diluted to the final desired concentration to form a test suspension. For example, dinocap, either alone or in combination, is sprayed at 10, 40 or 200 ppm to the point of run-off on the test plants, equivalent to a rate of 25, 100 or 500 g/ha, respectively.
For testing combinations, the stock suspensions of the individual active ingredients prepared as above are then combined in the appropriate ratio, and diluted to the final desired concentration to form a test suspension.
The resulting test suspensions are then used in the following tests. Test suspensions are sprayed to the point of run-off on the test plants at the rates of active ingredient described below. The tests were replicated three times and the results reported as the average of the three replicates.
The test suspension was sprayed to the point of run-off on wheat seedlings. The following day the seedlings were inoculated with a spore dust of Erysiphe graminis f. sp. tritici, (the causal agent of wheat powdery mildew) and incubated in a growth chamber at 20° C. for 8 days, after which disease ratings were made.
Results for Test A are given in Table A. In the table, a rating of 100 indicates 100% disease control and a rating of 0 indicates no disease control (relative to the controls). Columns labeled Observed Disease Control indicates the average of three replications. Columns labeled Expected Disease Control indicate the expected value for each treatment mixture using the Colby equation.

As for “2,6-dinitro-4-octylphenyl crotonates and 2,4-dinitro-6-octylphenyl crotonates [Dinocap]”, the “Observed Disease Control” value in data set [1] (application rate 10 ppm, rated after 8 days) was found to be 45%; in data set [1] (application rate 40 ppm, rated after 8 days), 76%; in data set [1] (application rate 200 ppm, rated after 8 days), 98%.
Take `CCCOc1nc2ccc(I)cc2c(=O)n1CCC` [Compound 1, 6-iodo-3-propyl-2-propyloxy-4(3H)-quinazolinone]: the melting point (in general, the temperature, or range, at which the solid turns liquid) lay within 48 to 49 °C. Further, the “Observed Disease Control” value in data set [1] (application rate 0.08 ppm, inoculated day after spray, rated after 8 days at 20° C.) is 80%. Also, the “Observed Disease Control” value in data set [1] (application rate 0.4 ppm, rated after 8 days) came to 99%.
